What was measured:
endothelial cells = experiment: In vitro tube formation assay; assay type: cell-based; details: dose dependent
Description: In vitro tube formation assay.

[1] = test system: subretinal neovascularization (SNV) in vldlr-/- retina; experiment: SNV in vldlr-/- knockout mice assay; assay type: in vivo; details: antibody injection
Procedure: SNV in vldlr−/− knockout mice assay. […] Experiments were carried out in very-low-density lipoprotein receptor (vldr) knockout mice to determine the effect of APX3330 on inhibition of SNV development in the vldlr−/− mutant. Each animal received a single intravitreal injection of 1 μl volume of BSS as a vehicle control and the fellow eye received 1 μl of […] APX3330. The final concentration of APX3330 was equivalent to approximately 20 μM in the retina. Quantitative measurement of SNV was carried out one week after the treatment in the whole mount retina after lectin-FITC staining. […] The apparent increase of SNV after antibody injection could be due to foreign protein triggered immune response which has been reported before (Tator et al., 2008). APX3330 reduced the number of SNV at a statistically significant level (p<0.01 in paired t-test). […] The Ape1/Ref-1 inhibitor offers a new approach to control angiogenesis for advanced macular degeneration (AMD) treatment.

UC3 and T24 cells = experiment: Incucyte caspase-3/7 apoptosis assay; assay type: cell-based, human; details: red fluorescence over time
Procedure: UC3 and T24 cells were plated in 96-well plates at 3,500 cell/well and allowed to attach overnight. Increasing amounts of APX2009 or APX2014 were added to each well along with 1 μM of the caspase reagent (Caspase-3/7 Red, Essen Bioscience) and then the cells were allowed to recover for 2 hours prior to beginning imaging with the Incucyte system (Essen Bioscience). Each well was imaged for phase contrast as well as red fluorescence every 2 hours for 96 hours. The Incucyte software generated movies of the cells following treatment as well as real-time imaging data with red fluorescence normalized to the percent confluency of the well.
To assay for caspase-3/7 mediated apoptosis, the increase in red fluorescence was analyzed over time following the addition of APX2009 and APX2014.

RP-B-02 spheroids = experiment: 3D spheroid growth assay RP-B-02; assay type: cell-based, human; details: p<0.05
Description: (§1) RP-B-01 and RP-B-02 cells were resuspended in normal growth media containing 3% Reduced Growth Factor Matrigel (BD Biosciences) at a cell density of 1,500 and 3,000 cells/well, respectively and plated in ultra-low adherence 96-well plates (Corning).
(§2) Spheroids were allowed to form and then treated on days 4, 8, and 12 following plating with media containing 5% serum, 3% Reduced Growth Factor Matrigel, and APE1/Ref-1 inhibitors. Vehicle control, DMSO, was less than 0.01% of the volume, and was equivalent in each well. On Day 15, Alamar blue reagent (LifeTechnologies) was added to each well (10 μL/well) and incubated for 24 hours.
(§3) In order to mimic tumor growth more accurately in a relevant microenvironment and in a more robust model for predicting response to treatment, a three-dimensional (3D) culture model of patient-derived RP-B-01 and RP-B-02 bladder cancer cells was used. Both RP-B-01 and RP-B-02 cell lines are transitional cell carcinoma staged as T4bN1Mx and T2bN0Mx Grade III tumors, respectively.

T24 cells = experiment: Methylene blue cell growth assay T24; assay type: cell-based; details: Homo sapiens, T-24, read-out: cell growth-inhibitory IC50
Procedure: (§4) FIGS. 31A & 31B. Treatment with APE1/Ref-1 inhibitors potently blocks bladder cancer cell proliferation and activated Caspase 3/7. […] The IC50 values for FIG. 31A were determined using the methylene blue assay, n=4. […] T24 and UC3 cells were treated with APX2009 and APX2014 at the IC50 and IC90 and monitored over time for activation of capsase 3/7 by an increase in red fluorescence. Time course graphs are shown in FIG. 31B and representative images at 48 hr are shown in FIG. 32A (described more fully below), n=3-4.
(§5) FIGS. 36A-36H. […] In cytokine-induced T24 and UC3 cells NFκB-driven luciferase (FIG. 36A), STAT3-driven luciferase (FIG. 36B), and AP-1-driven luciferase (FIG. 36C) were quantified and normalized via Renilla following treatment with the corresponding cell growth-inhibitory IC50 concentrations. T24 cells were treated with APX2009 (8.5 μM) and APX2014 (6.5 μM), and UC3 cells were treated with APX2009 (6.1 μM) and APX2014 (4.6 μM) for 24 h. (*-p<0.05 APX treated vs vehicle, n=4). […] In the panels of FIGS. 36F & 36G, co-expression of survivin and APE1/Ref-1 was analyzed in superficial (FIG. 36F) and invasive human bladder tumors (FIG. 36G) in patients, and found nearly universal overlap of positivity in both in human samples. This was also true in cisplatin-refractory patients from the tissue microarray specimens (FIG. 36H). […]

[2] = test system: RP-B-01, RP-B-02 and T24 cell lines; experiment: Alamar blue combination study with cisplatin; assay type: cell-based, human; details: combined with increasing concentrations of cisplatin, 72 h
Procedure: FIGS. 30A-30C. […] RP-B-01, RP-B-02, and T24 cell lines were treated with increasing concentrations of cisplatin in combination with a single dose of either APX2009 or APX2014 as indicated (n=3±SE). Cell proliferation was normalized to Saline control and expressed as Fold Change. Combination index (CI) values calculated with Compusyn for combination of APX inhibitors and cisplatin. CI values indicated mainly additivity (0.95-1.2) to synergy (0.8-0.94).
Bladder cancer cell lines (BLCAb001 (RP-B-01) and BLCAb002 (RP-B-02) maintained in RPMI growth medium with 10% FBS were plated at 4,000 cells/well in poly-D-lysine treated 96-well clear bottom black plates and grown overnight in 5% CO2 at 37° C. Cells in monolayer were then treated with increasing concentrations of redox-specific inhibitor APX3330, APX2014 or APX2009 and serially diluted 1:2 in a 5-point dose scheme. For combination studies, cells were treated with both cisplatin and APX compounds to determine efficacy. After 72 hours, fresh RPMI medium with 5% FBS was exchanged, and a fluorescent metabolic indicator, Alamar Blue was added to each well at 10% final concentration. After a 4 hour incubation, plates were read on a Synergy H4 (Bio-Tek) plate reader. […]
APE1/Ref-1 inhibition enhances cisplatin's therapeutic effect. […] Cell proliferation was assessed using Alamar blue 72 h after drug treatment.

[3] = test system: SW780, T24, UC3 cell lines; experiment: Methylene blue cell growth assay, bladder cancer cell panel; assay type: cell-based, human
Procedure: as §4
Bladder cancer cell proliferation was inhibited and apoptosis was induced by potent, selective redox inhibitors of APE1/Ref-1.

UC3 cells = experiment: Methylene blue cell growth assay UC3; assay type: cell-based; details: Homo sapiens, read-out: cell growth-inhibitory IC50
Procedure: as §4, §5

bladder cancer cells = experiment: BrdU incorporation assay in cultured cells; assay type: cell-based; details: IC50 concentration, 24 hours; control 11.2%±0.84
Procedure: To determine the proliferation rate of cells in response to APE1/Ref-1 redox inhibitors, cells were grown in the culture conditions described above and treated with inhibitors as described above, in chamber slides. After 24 hours in culture with inhibitors or vehicle, all cells were treated with 3.1 μg/ml BrdU (in sterile PBS; 0.1%) for one hour. Cells were fixed and permeablized with 4% paraformaldehyde and stained for BrdU incorporation with the antibody and methodology described in the Roche BrdU labeling Kit, (Risch-Rotkreuz, Switzerland), using secondary antibodies. Positive cells were captured on a Leica 6000 fluorescent microscope and were quantified relative to Hoechst positive nuclei (total live cells).
To further characterize this effect, it was analyzed whether this reduced cell number was due to decreases in proliferation, increases in apoptosis, or both.

survivin and Cyclin D1 = experiment: Western blot of survival and proliferation proteins in cells; assay type: cell-based, human; details: immunoblot
Procedure: (§6) FIGS. 36A-36H. […] In cytokine-induced T24 and UC3 cells NFκB-driven luciferase (FIG. 36A), STAT3-driven luciferase (FIG. 36B), and AP-1-driven luciferase (FIG. 36C) were quantified and normalized via Renilla following treatment with the corresponding cell growth-inhibitory IC50 concentrations. T24 cells were treated with APX2009 (8.5 μM) and APX2014 (6.5 μM), and UC3 cells were treated with APX2009 (6.1 μM) and APX2014 (4.6 μM) for 24 h. (*-p<0.05 APX treated vs vehicle, n=4). […] In the panels of FIGS. 36F & 36G, co-expression of survivin and APE1/Ref-1 was analyzed in superficial (FIG. 36F) and invasive human bladder tumors (FIG. 36G) in patients, and found nearly universal overlap of positivity in both in human samples. This was also true in cisplatin-refractory patients from the tissue microarray specimens (FIG. 36H).
Whole cell extracts were prepared using RIPA (radioimmunoprecipitation) buffer containing protein inhibitors (1:100 PMSF, 1:100 orthovanadate and 1:100 protease inhibitor). Total protein concentration was determined via Lowry or BCA assay. 10-50 μg/well of each lysate was separated by SDS-PAGE using a 12% SDS-polyacrylamide gel. Blots were blocked with 5% nonfat dry milk in 1×TBS for 1 h and incubated overnight with primary antibodies to either APE1/Ref-1 (1:1000 dilution, Novus, NB-100-116), survivin (1:1000, Cell Signaling), Cyclin D1 (1:500, Abcam), PARP-1 (1:1000, Cell Signaling) or GAPDH (1:5000, Cell Signaling). After blots were washed three-six times with TBS-Tween, blots were incubated with HRP-conjugated secondary mouse antibodies (1:5000, Pierce). After washing three-six times with TBS-Tween, blots were visualized by enhanced chemiluminescence (West Pico/West Femto, Pierce).
For further confirmation of a decrease in NFκB and STAT3 transcriptional activity, levels of survivin and Cyclin D1 were examined Both survivin and Cyclin D1 are known to be downstream targets of NFκB and STAT3. […] However, unlike APE1/Ref-1, survivin expression was primarily nuclear in both urothelial confined and invasive lesions.

NFκB = experiment: NFκB-driven luciferase reporter; assay type: cell-based, human; details: T24 and UC3 cells, IC50 concentration, 24 h
Procedure: as §6
(§7) The transcriptional activity of NFκB, STAT3, and AP-1 is under redox control by APE1/Ref-1. Therefore, NFκB, STAT3, or AP-1 transcriptional activity was quantified following treatment with APE1/Ref-1 redox inhibitors (FIGS. 36A-36C).

RP-B-01 spheroids = experiment: 3D spheroid growth assay RP-B-01; assay type: cell-based, human; details: p<0.01
Description: as §1, §2, §3

STAT3 = experiment: STAT3-driven luciferase reporter; assay type: cell-based, human; details: T24 and UC3 cells induced with IL-6, IC50 concentration, 24 h
Procedure: as §6, §7

RP-B-01 cells = experiment: Alamar blue monolayer assay RP-B-01; assay type: cell-based, human
Procedure: (§8) Bladder cancer cell lines (BLCAb001 (RP-B-01) and BLCAb002 (RP-B-02) maintained in RPMI growth medium with 10% FBS were plated at 4,000 cells/well in poly-D-lysine treated 96-well clear bottom black plates and grown overnight in 5% CO2 at 37° C. Cells in monolayer were then treated with increasing concentrations of redox-specific inhibitor APX3330, APX2014 or APX2009 and serially diluted 1:2 in a 5-point dose scheme. For combination studies, cells were treated with both cisplatin and APX compounds to determine efficacy. After 72 hours, fresh RPMI medium with 5% FBS was exchanged, and a fluorescent metabolic indicator, Alamar Blue was added to each well at 10% final concentration. After a 4 hour incubation, plates were read on a Synergy H4 (Bio-Tek) plate reader. For each drug dose, background was subtracted and then further normalized to media alone.
(§9) APE1/Ref-1 inhibition enhances cisplatin's therapeutic effect. Cisplatin is the standard of care for bladder cancer, but many patients' tumors are refractory to this therapy. […] To determine this, PDX lines, RP-B-01 and RP-B-02, as well as established cell line, T24, were treated with increasing concentrations of cisplatin in combination with APX compounds (FIGS. 30A-30C). Cell proliferation was assessed using Alamar blue 72 h after drug treatment.

RP-B-02 cells = experiment: Alamar blue monolayer assay RP-B-02; assay type: cell-based, human; details: 72 h
Procedure: as §8, §9

AVASTIN®: VEGF antibody [reference compound]
formation of blood-vessel-like tubules (endothelial cells): prevented formation of blood-vessel-like tubules | inhibition to the number of SNV [1]: neither AVASTIN® (VEGF antibody) nor bFGF antibody treatment showed any sign of inhibition

CCC/C(=C\C1=C(OC)C(=O)c2ccccc2C1=O)C(=O)NOC [APX2014]
caspase-3/7 activation (UC3 and T24 cells): dose-dependent increase in caspase activation | potency in RP-B-02 cells in 3D culture relative to APX3330 (RP-B-02 spheroids): more potent in the RP-B-02 cells than parent compound APX3330 | IC50 (T24 cells): 6.5 µM | cellular proliferation when combined with cisplatin [2]: further reduction in cellular proliferation | fold lower IC50 than APX3330 [3]: 11 fold | IC50 (UC3 cells): 4.6 µM | BrdU-positive cells (bladder cancer cells): 7.2%±0.49 | expression of c-Myc, Bcl-2, Bcl-XL (survivin and Cyclin D1): No change in expression | expression of survivin and Cyclin D1 (survivin and Cyclin D1): significantly down-regulated | NFκB transcriptional activity (NFκB): reduced the transcriptional activity of NFκB and STAT3 | relative sensitivity of RP-B-01 cells in 3D culture (RP-B-01 spheroids): significantly more sensitive to APX2014 than APX2009 | STAT3 transcriptional activity (STAT3): reduced the transcriptional activity of NFκB and STAT3

N.N.[Cl][Pt][Cl] [cisplatin]
resistance of RP-B-01 relative to RP-B-02 cells (RP-B-01 cells): at least 3 fold | IC50 (RP-B-01 cells; RP-B-01 cells, 72 h): 1.44 µM | IC50 (RP-B-02 cells): 0.5 µM
